In patent publication US20050256132A1, “Use of ER selective NF-kB inhibitors for the treatment of sepsis” (priority 2003, published 2005):
Where two headings read alike, the source gives them in different places.

Experiments:
ER/IL-6 = test: Endothelial Cell ER/IL-6 Assay, IL-6 promoter luciferase (Table 2); type: cell-based, human; conditions: ERα infected HAECT-1 cells, IL-1β; for Emax: read-out: IL6 luc % Efficacy; for IC50: read-out: IL6 luc IC50
Outline: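 HAECT-1 human aortic endothelial cells adenovirally expressing human ERα (or non-ER-infected controls) received compounds as 2× stocks with 2 ng/ml IL-1β and IL-6 promoter (1250 bp)-luciferase adenovirus for […] at 34 °C. ER/IL-6 was read as lysate luciferase and CK as the rate of A340 increase with CK reagent. IC50/EC50 came from four-parameter logistic fits.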

CK = test: Creatine kinase assay in ERα infected HAECT-1 cells (Table 2); type: cell-based, human; conditions: for Emax: HAECT1, read-out: CK % Efficacy
Protocol: T-175 flasks of 100% confluent HAECT-1 cells (immortalized human aortic endothelial cells) were washed with 8 ml of HBSS (HEPES buffered saline solution) and infected for fours hours with 6 ml of a 1:10 dilution of Ad5-wt-hERα virus (an adenovirus transfection vector that mediates CMV promoter driven expression of human ERα) in phenol red free Endothelial Cell Basal medium (Clonetics, San Diego, Calif., Catalog # CC-3129) containing 0.25% bovine serum albumin (EDM-BSA). After four hours, cells were washed with EDM-BSA and incubated overnight in the same medium. Following overnight incubation, cells were washed with EDM-BSA and infected for 2 hours with 6 ml of a 1:10 dilution of Ad5-3x(NFκB).Luc virus (Adenovirus luciferase expression vector driven by three repeats of the MHC NFκb sites 5′ to the thymidine kinase promoter) in EDM-BSA. After two hours, cells were washed and incubated at 34° C. for one hour. Cells were then washed, trypsinized, counted, and resuspended in 95% FBS/5% dimethylsulfoxide at a concentration of […], frozen as 1 or 5 ml aliquots in cryo-vials and stored at −150° C. Control (no ER infection) cells were processed as above without Ad5-wt-hERα virus infection.
ERα infected HAECT-1 cells or control cells were thawed, diluted 42× in warm EBM-BSA, plated into 96-well plates at 0.1 ml/well and incubated for 4 hours at 34° C. Test compounds were added to the cells at 2× stocks in EBM-BSA containing 2 ng/ml IL-1β Ad6-IL-6(1250 bp).Luc virus and plates were returned to the incubator (34° C.). After […], cells were lysed with 50 μl of Promega Cell Culture Lysis reagenet for about 5 minutes at room temperature on a shaker. After lysing, 15 μl of lysate is transferred to luminometer plates for luciferase determination. Luciferase activity is evaluated using a Perkin Elmer Victor2 1420 multilabel counter. Creatine kinase was determined from the rate of increase in A340 following addition of 100 μl of CK assay reagent (Sigma catalog no. 47-10) to the remainder of the cell lysate.
For IC50 and EC50 calculations, mean IL-6, luciferase or CK values versus log10 of the compound concentration were fitted to a four parameter logistic equation. The IC50/EC50 value, ‘Hill slope,’ upper and lower limits of the curve were iteratively estimated.

Compound	melting point [°C]	IC50 (ER/IL-6; Homo sapiens, HAECT1) [nM]	EC50 (CK; Homo sapiens, HAECT1) [nM]	IC50 (ER/IL-6) [nM]	EC50 (CK) [nM]	Emax (ER/IL-6; Homo sapiens, HAECT1) [%]	Emax (CK; Homo sapiens) [%]	IL6 luc % Efficacy (ER/IL-6) [%]	CK % Efficacy (CK) [%]
COC(=O)[C@@](C#N)(Cc1ccc(-c2cccc(C(F)(F)F)c2)cc1)[C@H](c1ccccc1OC)c1cccc2ccccc12 (relative stereo) [Example 153, Methyl (2S*,3S*)-2-cyano-3-(2-methoxyphenyl)-3-(1-naphthyl)-2-{[3′-(trifluoromethyl)-1,1′-biphenyl-4-yl]methyl}propanoate]	202 to 204.1	149				150	15		
COc1ccccc1[C@H](c1cccc2ccccc12)[C@@](C)(C#N)C(=O)N1CCN(c2cccc(Br)c2)CC1 [Example 131, (2S)-3-[4-(3-bromophenyl)piperazin-1-yl]-2-[(S)-(2-methoxyphenyl)(1-naphthyl)methyl]-2-methyl-3-oxopropanenitrile]	180 to 182	15	212			119	48		
COc1ccccc1[C@H](c1cccc2ccccc12)[C@@](C)(C#N)C(=O)N1CCC(N2C(=O)Cc3ccccc32)CC1 [Example 132, (2S,3S)-3-(2-methoxyphenyl)-2-methyl-3-(1-naphthyl)-2-{[4-(2-oxo-2,3-dihydro-1H-indol-1-yl)piperidin-1-yl]carbonyl}propanenitrile]	227 to 230	122	298			92	57		
COc1ccccc1C(c1cccc2ccccc12)C(C#N)(Cc1cccnc1)C(=O)N1CC=C(c2c[nH]c3ccccc23)CC1 (stereo not drawn) [Example 178, (RR,SS)-3-[4-(1H-indol-3-yl)-3,6-dihydropyridin-1(2H)-yl]-2-[(2-methoxyphenyl)(1-naphthyl)methyl]-3-oxo-2-(pyridin-3-ylmethyl)propanenitrile]				94				137	−100
COc1ccccc1[C@H](c1cccc2ccccc12)[C@@](C)(C#N)C(=O)N1CCC2(CC1)OCCO2 [Example 188]				63				107	39
COCC(C#N)(C(=O)N1CC=C(c2c[nH]c3ccccc23)CC1)C(c1ccccc1OC)c1cccc2ccccc12 (stereo not drawn) [Example 213, (RR,SS)-3-[4-(1H-indol-3-yl)-3,6-dihydropyridin-1(2H)-yl]-2-(methoxymethyl)-2-[(2-methoxyphenyl)(1-naphthyl)methyl]-3-oxopropanenitrile]				5.6	64			103	26
COc1ccccc1C(c1cccc2ccccc12)C(C#N)(COCc1ccccc1)C(=O)N1CCN(C2CCCCC2)CC1 (stereo not drawn) [Example 217, (RR,SS)-2-[(benzyloxy)methyl]-3-(4-cyclohexylpiperazin-1-yl)-2-[(2-methoxyphenyl) (1-naphthyl)methyl]-3-oxopropanenitrile]				203				12	−37
COc1ccccc1[C@@H](c1cccc2ccccc12)[C@@](C#N)(COCc1ccccc1)C(=O)N1CCN(c2ncccn2)CC1 [Example 218, (RR,SS)-2-[(benzyloxy)methyl]-3-(2-methoxyphenyl)-3-(1-naphthyl)-2-[(4-pyrimidin-2-ylpiperazin-1-yl)carbonyl]propanenitrile]				103				101	−12
COc1ccccc1[C@@H](c1cccc2ccccc12)[C@@](C#N)(COCc1ccccc1)C(=O)N1CCN(c2cnccn2)CC1 [Example 220, (RR,SS)-2-[(benzyloxy)methyl]-3-(2-methoxyphenyl)-3-(1-naphthyl)-2-[(4-pyrazin-2-ylpiperazin-1-yl)carbonyl]propanenitrile]				344				128	6
COC[C@](C#N)(C(=O)N1CC=C(c2c[nH]c3ccccc23)CC1)[C@H](c1ccccc1OC)c1cccc2ccccc12 [Example 225]				1600				83	−12
COC[C@@](C#N)(C(=O)N1CC=C(c2c[nH]c3ccccc23)CC1)[C@@H](c1ccccc1OC)c1cccc2ccccc12 [Example 226]				220	138			115	18

Second part, led by results:

melting point [°C]	IC50 (ER/IL-6; Homo sapiens, HAECT1) [nM]	EC50 (CK; Homo sapiens, HAECT1) [nM]	IC50 (ER/IL-6) [nM]	EC50 (CK) [nM]	Compound	Emax (ER/IL-6; Homo sapiens, HAECT1) [%]	Emax (CK; Homo sapiens) [%]	IL6 luc % Efficacy (ER/IL-6) [%]	CK % Efficacy (CK) [%]
148.3 to 151					COC[C@](C#N)(C(=O)OC)[C@H](c1ccccc1OC)c1cccc2ccccc12 (relative stereo) [Example 141, Methyl (2S*,3S*)-2-cyano-2-(methoxymethyl)-3-(2-methoxyphenyl)-3-(1-naphthyl)propanoate]	123	39		
194.4 to 196.3	39	74			COC(=O)[C@@](C#N)(Cc1ccccn1)[C@H](c1ccccc1OC)c1cccc2ccccc12 (relative stereo) [Example 143, Methyl (2S*,3S*)-2-cyano-3-(2-methoxyphenyl)-3-(1-naphthyl)-2-(pyridin-2-ylmethyl)propanoate]	91	38		
218 to 219	19	85			COC(=O)[C@@](C#N)(Cc1ccc(Br)cc1)[C@H](c1ccccc1OC)c1cccc2ccccc12 (relative stereo) [Example 152, Methyl (2S*,3S*)-2-(4-bromobenzyl)-2-cyano-3-(2-methoxyphenyl)-3-(1-naphthyl)propanoate]	130	14		
142 to 144.5	23				COC(=O)[C@@](C#N)(CCN(C)C)[C@H](c1ccccc1OC)c1cccc2ccccc12 (relative stereo) [Example 157, Methyl (2S*)-2-cyano-4-(dimethylamino)-2-[(S*)-(2-methoxyphenyl)(1-naphthyl)methyl]butanoate]	110	-100		
184.9 to 185.5	389				COC[C@](C#N)(C(=O)NCC(C)(C)C)[C@H](c1ccccc1OC)c1cccc2ccccc12 (relative stereo) [Example 181, (2S*,3S*)-2-cyano-N-(2,2-dimethylpropyl)-2-(methoxymethyl)-3-(2-methoxyphenyl)-3-(1-naphthyl)propanamide]	104	2		
			157		COC[C@@](C#N)(C(=O)N1CCN(c2ncccn2)CC1)[C@@H](c1ccccc1OC)c1cccc2ccccc12 [Example 200, (RR,SS)-2-(methoxymethyl)-3-(2-methoxyphenyl)-3-(1-naphthyl)-2-[(4-pyrimidin-2-ylpiperazin-1-yl)carbonyl]propanenitrile]			162	13
			87		COCC(C#N)(C(=O)N1CCN(C2CCCCC2)CC1)C(c1ccccc1OC)c1cccc2ccccc12 (stereo not drawn) [Example 209, (RR,SS)-3-(4-cyclohexylpiperazin-1-yl)-2-(methoxymethyl)-2-[(2-methoxyphenyl)(1-naphthyl)methyl]-3-oxopropanenitrile]			116	2
			59	138	COCC(C#N)(C(=O)N1CCN(c2cnccn2)CC1)C(c1ccccc1OC)c1cccc2ccccc12 (stereo not drawn) [Example 212, (RR,SS)-2-(methoxymethyl)-3-(2-methoxyphenyl)-3-(1-naphthyl)-2-[(4-pyrazin-2-ylpiperazin-1-yl)carbonyl]propanenitrile]			113	22
			304	33	COC[C@@](C#N)(C(=O)N1CCN(C2CCCCC2)CC1)[C@@H](c1ccccc1OC)c1cccc2ccccc12 [Example 222, (2R,3R)-3-(4-cyclohexylpiperazin-1-yl)-2-(methoxymethyl)-2-[(2-methoxyphenyl)(1-naphthyl)methyl]-3-oxopropanenitrile]			170	
